{"source": "patent US5114918A", "about": "“Endothelin antagonistic cyclic pentapeptides” (Banyu Pharmaceutical Co., Ltd., priority 1989, dated 1992)", "note": "Square brackets hold non-standard residues; d marks the D form. Peptide text beside a SMILES is read from it. * marks the point of attachment. dGly(2-thienyl) = N[C@@H](C(=O)O)c1cccs1; Cya = N[C@@H](CS(=O)(=O)O)C(=O)O; dCya = N[C@H](CS(=O)(=O)O)C(=O)O; Met(O) = CS(=O)CC[C@H](N)C(=O)O; dPen = CC(C)(S)[C@@H](N)C(=O)O; Pip = O=C(O)[C@@H]1CCCCN1; Ac6c = NC1(C(=O)O)CCCCC1; Nle = CCCC[C@H](N)C(=O)O; Thz = O=C(O)[C@@H]1CSCN1; Nva = CCC[C@H](N)C(=O)O; Aib = CC(C)(N)C(=O)O; βAla = NCCC(=O)O; Sar = CNCC(=O)O; For = O=C*"}
{"target": "T1, endothelin receptor (membrane of smooth muscle tissue of porcine aorta) (Sus scrofa, UniProt Q29010)", "T1 construct": "from tissue; host or cells: smooth muscle tissue of porcine aorta (membrane fraction)", "T1 sequence (Q29010 21-427)": "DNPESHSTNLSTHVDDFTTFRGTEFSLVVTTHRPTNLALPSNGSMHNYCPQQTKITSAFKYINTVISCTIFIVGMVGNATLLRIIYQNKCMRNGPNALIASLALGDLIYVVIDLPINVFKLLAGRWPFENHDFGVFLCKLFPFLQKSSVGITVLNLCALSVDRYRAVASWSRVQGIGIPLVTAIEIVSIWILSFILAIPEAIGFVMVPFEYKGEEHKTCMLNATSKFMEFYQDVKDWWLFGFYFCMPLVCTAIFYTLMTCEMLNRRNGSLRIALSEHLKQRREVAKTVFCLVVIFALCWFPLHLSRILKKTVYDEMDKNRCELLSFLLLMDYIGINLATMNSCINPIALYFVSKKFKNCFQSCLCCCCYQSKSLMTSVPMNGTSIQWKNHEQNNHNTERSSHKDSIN", "assay": "Endothelin binding inhibition test (125I-endothelin-1, porcine aorta smooth muscle membrane)", "settings": "1.1 μM of the test compound; porcine aorta smooth muscle membrane; 25° C, 4 hours; read-out: 125I-endothelin-1 binding inhibition, Inhibition (%)", "description": "(§1) Endothelin binding inhibition test\n(§2) The smooth muscle tissue of porcine aorta was homogenized in a buffer solution of 10 mM MOPS, pH 7.4, at 4° C. by a polytron. To the homogenate, sucrose was added to a concentration of 20%, and the mixture was centrifuged at 1,000×g for 15 minutes, and the supernatant was further centrifuged at 10,000×g for 15 minutes. The supernatant thereof was further centrifuged at 90,000×g for 40 minutes. The membrane precipitate thereby obtained was suspended in a buffer solution of 5 mM HEPES/Tris, pH 7.4, at a concentration of 25 mg/ml.\n(§3) Then, 16 μl of this membrane suspension was added to 340 μl of 50 mM Tris/HCl buffer, pH 7.4, containing 10 μM calcium chloride, 10 μM magnesium chloride, 0.1 mM PMSF, 1 μM pepstatin A, 2 μM leupeptin, 1 mM 1,10-phenanthroline and 0.1% bovine serum albumin. To this suspension, 4 μl of (A) endothelin-1 (for nonspecific binding: 0.2 μM as the final concentration), (B) buffer solution A (for total control binding), or (C) a test compound (1.1 μM as the final concentration), was added. Further, to each suspension, 40 μl of ^125 I-endothelin-1 (12000-18000 cpm) was added. These mixtures were incubated at 25° C for 4 hours, then subjected to filtration on a glass filter GF/C and then washed with 5 mM HEPES/Tris, pH 7.4, containing 0.3% bovine serum albumin. Then, the radioactivity trapped by the glass filter was measured, and the ^125 I-endothelin-1 binding inhibition D (%) at 1.1 μM of the test compound was determined by the following equation. [formula] Each test was performed in triplicate.", "units": {"inhibition at 1.1 µM": "%"}}
{"smiles": "CCCC[C@@H]1NC(=O)[C@@H](C(C)C)NC(=O)[C@H](CO)NC(=O)[C@@H](CC(=O)O)NC(=O)[C@@H](Cc2c[nH]c3ccccc23)NC1=O", "note": "[Example 36, cyclo(-DTrp-DAsp-Ser-DVal-Nle-)] (cyclo([Nle][dW][dD]S[dV]))", "inhibition at 1.1 µM": 67}
{"smiles": "CSCC[C@@H]1NC(=O)[C@@H](C(C)C)NC(=O)[C@H](CO)NC(=O)[C@@H](CC(=O)O)NC(=O)[C@@H](Cc2c[nH]c3ccccc23)NC1=O", "note": "[Example 37, cyclo(-DTrp-DAsp-Ser-DVal-Met-)] (cyclo(M[dW][dD]S[dV]))", "inhibition at 1.1 µM": 38}
{"smiles": "CC(C)[C@H]1NC(=O)[C@H](CC(=O)O)NC(=O)[C@@H](CC(=O)O)NC(=O)[C@@H](Cc2c[nH]c3ccccc23)NC(=O)[C@H](C)NC1=O", "note": "[Example 38, cyclo(-DTrp-DAsp-Asp-DVal-Ala-)] (cyclo(A[dW][dD]D[dV]))", "inhibition at 1.1 µM": 21}
{"smiles": "CC(C)[C@H]1NC(=O)[C@H](C)NC(=O)[C@@H](CC(=O)O)NC(=O)[C@@H](Cc2c[nH]c3ccccc23)NC(=O)[C@@H]2CCCN2C1=O", "note": "[Example 39, cyclo(-DTrp-DAsp-Ala-DVal-Pro-)] (cyclo(A[dV]P[dW][dD]))", "inhibition at 1.1 µM": 18}
{"smiles": "CC[C@H](C)[C@@H]1NC(=O)[C@@H](C(C)C)NC(=O)[C@@H]2CCCN2C(=O)[C@@H](CC(=O)O)NC(=O)[C@@H](Cc2c[nH]c3ccccc23)NC1=O", "note": "[Example 40, cyclo(-DTrp-DAsp-Pro-DVal-Ile-)] (cyclo(I[dW][dD]P[dV]))", "inhibition at 1.1 µM": 66}
{"smiles": "CCCC[C@@H]1NC(=O)[C@@H](C(C)C)NC(=O)[C@@H]2CCCN2C(=O)[C@@H](CC(=O)O)NC(=O)[C@@H](Cc2c[nH]c3ccccc23)NC1=O", "note": "[Example 41, cyclo(-DTrp-DAsp-Pro-DVal-Nle-)] (cyclo([Nle][dW][dD]P[dV]))", "inhibition at 1.1 µM": 83}
{"smiles": "CC(C)C[C@@H]1NC(=O)[C@@H](C(C)C)NC(=O)[C@H](C(C)C)NC(=O)[C@@H](CC(=O)O)NC(=O)[C@@H](Cc2c[nH]c3ccccc23)NC1=O", "note": "[Example 44, cyclo(-DTrp-DAsp-Val-DVal-Leu-)] (cyclo(L[dW][dD]V[dV]))", "inhibition at 1.1 µM": 56}
{"smiles": "CCC[C@@H]1NC(=O)[C@@H](C(C)C)NC(=O)[C@@H]2CCCN2C(=O)[C@@H](CC(=O)O)NC(=O)[C@@H](Cc2c[nH]c3ccccc23)NC1=O", "note": "[Example 45, cyclo(-DTrp-DAsp-Pro-DVal-Nva-)] (cyclo([Nva][dW][dD]P[dV]))", "inhibition at 1.1 µM": 85}
{"smiles": "CCCC[C@@H]1NC(=O)[C@@H](CC(=O)O)NC(=O)[C@@H](Cc2c[nH]c3ccccc23)NC(=O)[C@H](CC(C)C)NC(=O)[C@@H](C(C)C)NC1=O", "note": "[Example 46, cyclo(-DTrp-DAsp-Nle-DVal-Leu-)] (cyclo(L[dW][dD][Nle][dV]))", "inhibition at 1.1 µM": 75}
{"smiles": "CC(C)C[C@@H]1NC(=O)[C@@H](C(C)C)NC(=O)[C@@H]2CCCCN2C(=O)[C@@H](CC(=O)O)NC(=O)[C@@H](Cc2c[nH]c3ccccc23)NC1=O", "note": "[Example 47, cyclo(-DTrp-DAsp-Pip-DVal-Leu-)] (cyclo(L[dW][dD][Pip][dV]))", "inhibition at 1.1 µM": 89}
{"smiles": "CC(C)C[C@@H]1NC(=O)[C@@H](C(C)C)NC(=O)[C@H](Cc2ccccc2)NC(=O)[C@@H](CC(=O)O)NC(=O)[C@@H](Cc2c[nH]c3ccccc23)NC1=O", "note": "[Example 48, cyclo(-DTrp-DAsp-Phe-DVal-Leu-)] (cyclo(F[dV]L[dW][dD]))", "inhibition at 1.1 µM": 71}
{"smiles": "CC(C)C[C@@H]1NC(=O)[C@@H](C(C)C)NC(=O)[C@H](CCCCN)NC(=O)[C@@H](CS(=O)(=O)O)NC(=O)[C@@H](Cc2c[nH]c3ccccc23)NC1=O", "note": "[Example 50, cyclo(-DTrp-nCys(O3 H)-Lys-DVal-Leu-)] (cyclo(K[dV]L[dW][dCya]))", "inhibition at 1.1 µM": 57}
{"smiles": "CC(C)C[C@@H]1NC(=O)[C@@H](C(C)C)NC(=O)[C@@H]2CCCN2C(=O)[C@@H](CC(=O)O)NC(=O)[C@@H](Cc2cn(C=O)c3ccccc23)NC1=O", "note": "[Example 51, cyclo(-DTrp(CHO)-DAsp-Pro-DVal-Leu-)] (cyclo(L[dW](For)[dD]P[dV]))", "inhibition at 1.1 µM": 84}
{"smiles": "CCCC[C@@H]1NC(=O)[C@@H](C(C)C)NC(=O)[C@H](CO)NC(=O)[C@@H](CC(=O)O)NC(=O)[C@@H](Cc2cn(C=O)c3ccccc23)NC1=O", "note": "[Example 54, cyclo(-DTrp(CHO)-DAsp-Ser-DVal-Nle-)] (cyclo([Nle][dW](For)[dD]S[dV]))", "inhibition at 1.1 µM": 65}
{"smiles": "CSCC[C@@H]1NC(=O)[C@@H](CC(=O)O)NC(=O)[C@@H](Cc2cn(C=O)c3ccccc23)NC(=O)[C@H](CC(C)C)NC(=O)[C@@H](C(C)C)NC1=O", "note": "[Example 55, cyclo(-DTrp(CHO)-DAsp-Met-DVal-Leu-)] (cyclo(L[dW](For)[dD]M[dV]))", "inhibition at 1.1 µM": 81}
{"smiles": "CCC[C@@H]1NC(=O)[C@@H](C(C)C)NC(=O)[C@@H]2CCCN2C(=O)[C@@H](CC(=O)O)NC(=O)[C@@H](Cc2cn(C=O)c3ccccc23)NC1=O", "note": "[Example 56, cyclo(-DTrp(CHO)-DAsp-Pro-DVal-Nva-)] (cyclo([Nva][dW](For)[dD]P[dV]))", "inhibition at 1.1 µM": 84}
{"smiles": "CC(C)C[C@@H]1NC(=O)[C@@H](C(C)C)NC(=O)[C@H](CCCCNC=O)NC(=O)[C@@H](CC(=O)O)NC(=O)[C@@H](Cc2c[nH]c3ccccc23)NC1=O", "note": "[Example 57, cyclo(-DTrp-DAsp-Lys(CHO)-DVal-Leu-)] (cyclo(K(For)[dV]L[dW][dD]))", "inhibition at 1.1 µM": 65}
{"smiles": "CC(C)C[C@@H]1NC(=O)[C@@H](C(C)C)NC(=O)[C@H](CC[S+](C)[O-])NC(=O)[C@@H](CC(=O)O)NC(=O)[C@@H](Cc2cn(C=O)c3ccccc23)NC1=O", "note": "(stereo partly drawn) [Example 58, cyclo(-DTrp(CHO)-DAsp-Met(O)-DVal-Leu-)] (cyclo(L[dW](For)[dD][Met(O)][dV]))", "inhibition at 1.1 µM": 84}
{"smiles": "CC(C)C[C@@H]1NC(=O)[C@@H](C(C)(C)S)NC(=O)[C@@H]2CCCN2C(=O)[C@@H](CC(=O)O)NC(=O)[C@@H](Cc2c[nH]c3ccccc23)NC1=O", "note": "[Example 60, cyclo(-DTrp-DAsp-Pro-DPen-Leu-)] (cyclo(L[dW][dD]P[dPen]))", "inhibition at 1.1 µM": 79}
{"smiles": "CC(C)C[C@@H]1NC(=O)[C@@H](C(C)C)NC(=O)C(C)(C)NC(=O)[C@@H](CC(=O)O)NC(=O)[C@@H](Cc2c[nH]c3ccccc23)NC1=O", "note": "[Example 61, cyclo(-DTrp-DAsp-Aib-DVal-Leu-)] (cyclo([Aib][dV]L[dW][dD]))", "inhibition at 1.1 µM": 66}
{"smiles": "CC(C)C[C@@H]1NC(=O)C(C)(C)NC(=O)[C@@H]2CCCN2C(=O)[C@@H](CC(=O)O)NC(=O)[C@@H](Cc2c[nH]c3ccccc23)NC1=O", "note": "[Example 62, cyclo(-DTrp-nAsp-Pro-Aib-Leu-)] (cyclo([Aib]L[dW][dD]P))", "inhibition at 1.1 µM": 60}
{"smiles": "CC(C)C[C@@H]1NC(=O)C2(CCCCC2)NC(=O)[C@@H]2CCCN2C(=O)[C@@H](CC(=O)O)NC(=O)[C@@H](Cc2c[nH]c3ccccc23)NC1=O", "note": "[Example 64, cyclo(-DTrp-DAsp-Pro-Ac6 c-Leu-)] (cyclo([Ac6c]L[dW][dD]P))", "inhibition at 1.1 µM": 83}
{"smiles": "CC(C)C[C@@H]1NC(=O)[C@@H](C(C)C)NC(=O)CN(C)C(=O)[C@@H](CC(=O)O)NC(=O)[C@@H](Cc2c[nH]c3ccccc23)NC1=O", "note": "[Example 65, cyclo(-DTrp-DAsp-Sar-DVal-Leu-)] (cyclo(L[dW][dD][Sar][dV]))", "inhibition at 1.1 µM": 85}
{"smiles": "CC(C)C[C@@H]1NC(=O)[C@@H](C(C)C)NC(=O)CCNC(=O)[C@@H](CC(=O)O)NC(=O)[C@@H](Cc2c[nH]c3ccccc23)NC1=O", "note": "[Example 66, cyclo(-DTro-DAsp-β-Ala-DVal-Leu-)] (cyclo(L[dW][dD][βAla][dV]))", "inhibition at 1.1 µM": 38}
{"smiles": "CC(C)C[C@@H]1NC(=O)[C@@H](c2cccs2)NC(=O)[C@@H]2CCCN2C(=O)[C@@H](CC(=O)O)NC(=O)[C@@H](Cc2c[nH]c3ccccc23)NC1=O", "note": "[Example 67, cyclo(-DTrp-DAsp-Pro-DThg-Leu-)] (cyclo(L[dW][dD]P[dGly(2-thienyl)]))", "inhibition at 1.1 µM": 82}
{"smiles": "CC(C)C[C@@H]1NC(=O)[C@@H](C(C)C)NC(=O)[C@@H]2CSCN2C(=O)[C@@H](CC(=O)O)NC(=O)[C@@H](Cc2c[nH]c3ccccc23)NC1=O", "note": "[Example 68, cyclo(-DTrp-DAsp-Thz-DVal-Leu-)] (cyclo(L[dW][dD][Thz][dV]))", "inhibition at 1.1 µM": 86}
{"target": "T1, endothelin receptor (membrane of smooth muscle tissue of porcine aorta)", "assay": "Endothelin binding inhibition test (125I-endothelin-1, porcine aorta smooth muscle membrane)", "settings": "read-out: 125I-endothelin-1 binding inhibition, Inhibition (%)", "description": "as §1, §2, §3", "units": {"inhibition at 1.1 µM": "%"}}
{"smiles": "CC(C)C[C@@H]1NC(=O)[C@@H](C(C)C)NC(=O)[C@H](CS(=O)(=O)O)NC(=O)[C@@H](CS(=O)(=O)O)NC(=O)[C@@H](Cc2c[nH]c3ccccc23)NC1=O", "note": "[Example 42, cyclo(-DTrp-DCys(O3 Na)-Cys(O3 Na)-DVal-Leu-)] (cyclo([Cya][dV]L[dW][dCya]))", "inhibition at 1.1 µM": 79}
